Starred links: 1 amine or outer side, 2 acyl side, 3 side chain; linkers in the order of their positions; H or OH if unused. Non-standard residues stand in square brackets, D forms with d. Residues, ends and D or L forms follow the SMILES beside them. *: point of attachment. Acetyl(2-STrt) = O=C(CSC(c1ccccc1)(c1ccccc1)c1ccccc1)*; X1 = Oc1ccc(NC(=S)[*:2])cc1N[*:1]; Nle = CCCC[C@H](N)C(=O)O; Ahx = NCCCCCC(=O)O; βAla = NCCC(=O)O

The record followed here is ChEMBL document CHEMBL1154386, “Synthesis, characterization and in vitro evaluation of new oxorhenium- and oxotechnetium-CCK4 derivatives as molecular imaging agents for CCK2-receptor targeting” (Eur J Med Chem, 2010).

This assay addresses T1, Gastrin/cholecystokinin type B receptor (Homo sapiens) (UniProt P32239).
T1 sequence (whole entry): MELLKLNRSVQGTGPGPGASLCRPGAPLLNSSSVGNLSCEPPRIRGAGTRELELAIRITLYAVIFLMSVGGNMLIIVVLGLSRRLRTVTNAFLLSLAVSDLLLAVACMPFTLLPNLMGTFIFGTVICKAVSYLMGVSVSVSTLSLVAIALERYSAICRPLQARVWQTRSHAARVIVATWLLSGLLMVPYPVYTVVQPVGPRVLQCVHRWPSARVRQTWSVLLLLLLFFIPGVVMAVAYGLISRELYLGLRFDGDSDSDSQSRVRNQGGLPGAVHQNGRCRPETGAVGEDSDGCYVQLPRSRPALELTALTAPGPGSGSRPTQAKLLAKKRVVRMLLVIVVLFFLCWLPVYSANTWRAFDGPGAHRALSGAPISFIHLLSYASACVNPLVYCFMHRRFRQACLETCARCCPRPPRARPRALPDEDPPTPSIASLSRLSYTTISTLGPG
Kind of assay: Agonist activity at human CCK2 receptor expressed in COS7 cells assessed as stimulation of [3H]inositol phosphate formation. The format is functional, cell-based. As to conditions: COS-7.

As for `CCCC[C@H](NC(=O)[C@H](Cc1c[nH]c2ccccc12)NC(=S)Nc1ccc(O)c(NC(=O)CNC(=O)CSC(c2ccccc2)(c2ccccc2)c2ccccc2)c1)C(=O)N[C@@H](CC(=O)O)C(=O)N[C@@H](Cc1ccccc1)C(=O)O` ({Acetyl(2-STrt)}-G[X1]W[Nle]DF-OH), the ED50 turned out to be 84.5 nM.
For `CCCC[C@H](NC(=O)[C@H](Cc1c[nH]c2ccccc12)NC(=O)CCCCCNC(=O)CCCCCNC(=S)Nc1ccc(O)c(NC(=O)CNC(=O)CSC(c2ccccc2)(c2ccccc2)c2ccccc2)c1)C(=O)N[C@@H](CC(=O)O)C(=O)N[C@@H](Cc1ccccc1)C(N)=O` ({Acetyl(2-STrt)}-G[X1][Ahx][Ahx]W[Nle]DF-NH2), the ED50 is 5.01 nM.
Take `CCCC[C@H](NC(=O)[C@H](Cc1c[nH]c2ccccc12)NC(=O)CCNC(=O)CCNC(=S)Nc1ccc(O)c(NC(=O)CNC(=O)CSC(c2ccccc2)(c2ccccc2)c2ccccc2)c1)C(=O)N[C@@H](CC(=O)O)C(=O)N[C@@H](Cc1ccccc1)C(N)=O` ({Acetyl(2-STrt)}-G[X1][βAla][βAla]W[Nle]DF-NH2): the ED50 amounted to 3.1 nM.
